The subject of one series is IL-6. The series is described as follows: IL-6 production of A549 epithelial cells by IL-1β stimulation. The conditions noted are these: A549, 5 μM, 48 hours then IL-1β 24 hours, vs control. The class given is cell-based, Human. On the procedure: In order to assess the inhibitory effects of production of IL-6 by the compounds of the present invention prepared as above, an IL-6 production test of epithelial cells by stimulation of IL-1β was performed.
After recovering A549 cells under culture in DMEM-fetal bovine serum (FBS) 10% medium and confirming that the survival rate is 97% or more through trypan blue staining, the recovered product was centrifuged at a speed of 1200 rpm for 5 minutes at room temperature, and the cells were prepared by resuspending them in DMEM-10% fetal bovine serum medium at 1×10^6 cells/3 ml. Thereafter, the cells were dispensed by 3 ml onto a 60 mm plate, and each dish was treated with 50 μl of Compounds 6, 9, 21, 32 and 39 at a concentration of 5 μM diluted in DMEM medium, and then cultured in a cell incubator (5% CO2 incubator) for 48 hours. Then, the cells were treated with 50 μl of human recombinant IL-1β at a concentration of 12.5 ng/ml diluted in DMEM medium, followed by culturing the same in a cell incubator (5% CO2 incubator) for 24 hours. As a control, 50 μl of 0.05% dimethylsulfoxide (DMSO)/DMEM medium was used for treatment.
(§1) The cultured cells were recovered to prepare an mRNA sample. […] From the separated RNA, cDNA was synthesized by reverse transcription, and the expression of CYP1A1 was confirmed through a real-time polymerase chain reaction (PCR) using iQ SYBR-Green Supermix (Bio-rad) in a CFX96 (Bio-rad) detection system. […] Herein, one (1) fold was set using the control.
(§2) The real-time polymerase chain reaction was performed under the conditions of 45 cycles at an annealing temperature of 58° C., wherein the following primer sequences were used.

Series [1] has as its system Foxp3-expressing regulatory T cells (Treg). The series is described as follows: Production of Foxp3-expressing regulatory T cells from naive CD4 T cells (flow cytometry). The class given is cell-based, C57BL/6 mice. The following applies: 2.5 μM, 3 days, compared to Vehicle. The method, then:
The spleen of C57BL/6 mice (8 to 12 weeks old, female) was excised, pulverized by adding RPMI medium, and then passed through a 40 μm cell strainer (BD Falcon), thereby obtaining a single cell suspension. The single cell suspension was centrifuged (1200 rpm, 5 minutes), and after discarding the supernatant, 1 ml of ACK lysis buffer was added, followed by stirring for 1 minute and then washing the same with RPMI medium. After the single cell suspension was centrifuged, T-cells were separated using a Mouse CD4 Naive T cell Enrichment Kit (Invitrogen). The separated T-cells were prepared by resuspending them in RPMI-fetal bovine serum (FBS) 10%+2-ME (mercaptoethanol) medium at 1×10^6/ml. For T-cell activation, 5 μg/ml anti-CD3 (eBioscience™) was dispensed by 100 μl onto a 96-well plate, reacted in a cell incubator (37° C., 5% CO2 incubator) for 4 hours, and washed with phosphate buffered saline to prepare the plate. The T-cells were dispensed by 200 μl onto the prepared plate, and each well was treated with 2 μg/ml of anti-CD28 (eBioscience™), 2 ng/ml of TGFβ-1 (R&D systems), and 100 U/ml of IL-2. Each 5 μl of Compounds 6 and 9 at a concentration of 2.5 μM diluted in RPMI-fetal bovine serum 10%+2-ME medium was used for treatment, followed by culturing the same in a cell incubator (37° C., 5% CO2 incubator) for 3 days. […]
In order to confirm the expression of Foxp3 protein, the recovered cells were placed in a 5 ml FACS tube (BD Falcon) and washed with 1 ml of phosphate buffered saline. […] The cells were washed twice with the Permeabilization buffer, suspended in 0.3 ml of FACS buffer, and measured by flow cytometry.
The promotion effects of Compound 6 and Comparative Example 1 on the production of “FoxP3-expressing regulatory T cells,” which play an important role in maintaining immune tolerance, were compared (FIG. 24). […] After 3 days, in order to confirm the effects of production of the regulatory T cells, the cultured cells were recovered and Foxp3 protein expression was measured in the same manner as in FIG. 4.

In series [2] the test system is CYP1A1. The series is described as follows: Induction of CYP1A1 protein expression in HepG2 (7-ethoxyresorufin/resorufin). The class given is cell-based, Human. The following applies: HepG2, 1 μM, 24 hours, vs control (vehicle). On the procedure: After recovering HepG2 under culture in DMEM-fetal bovine serum (FBS) 10% medium and then confirming that the survival rate is 97% or more through trypan blue staining, the recovered product was centrifuged at a speed of 1200 rpm for 5 minutes at room temperature, and the cells were prepared by resuspending them in DMEM-fetal calf serum 10% medium at 1.5×10^5 cells/ml.
Thereafter, the cells were dispensed onto a 96-well plate by 200 μl, and each plate was treated with 3 μl of Compounds 6, 21, 32 and 39 at a concentration of 1 μM diluted in DMEM medium, and then cultured in a cell incubator (5% CO2 incubator) for 24 hours. As a control, 3 μl of 0.05% dimethylsulfoxide (DMSO)/DMEM medium was used for treatment.
After 24 hours, the medium of the plate was discarded, washed with dPBS, treated with 100 μl of 2 μM 7-ethoxyresorufin, and cultured in a cell incubator (5% CO2 incubator) for 30 minutes. After 30 minutes, each 75 μl of fluorescamine (150 μg/ml) was treated, then resorufine excitation was measured at 535 nm and emission at 590 nm. The standard curve was measured and used with 0 to 50 pmol of resorufin solution.
After measurement, all solutions were removed, followed by treating the same with 25 μl of 0.5 M sodium hydroxide (NaOH), the cells were scraped and reacted in a shaker at room temperature for 15 minutes.
After 15 minutes, protein was quantified using a Bradford method, and a value was obtained using a calculation formula (sample resorufin amount/sample protein amount), and then one (1) fold was set using the control.

The subject of series [3] is CYP1A1. The series can be described thus: Induction of CYP1A1 mRNA expression in HepG2 (real-time PCR). The class given is cell-based, Human. The following applies: HepG2, 1 μM, 24 hours, vs control (vehicle). On the procedure:
In order to confirm target specificity of the compounds of an embodiment of the present invention prepared as above, it was confirmed whether the expression levels of CYP1A1 mRNA and CYP1A1 protein, which are AHR target genes, were increased.
After recovering HepG2 under culture in DMEM-fetal bovine serum (FBS) 10% medium and then confirming that the survival rate is 97% or more through trypan blue staining, the recovered product was centrifuged at a speed of 1200 rpm for 5 minutes at room temperature, and the cells were prepared by resuspending them in DMEM-fetal calf serum 10% medium at 3×10^5 cells/ml. Thereafter, the cells were dispensed onto a 60 mm dish by 3 ml, and each dish was treated with 50 μl of Compounds 6, 21, 32 and 39 at a concentration of 1 μM diluted in DMEM medium, and then cultured in a cell incubator (5% CO2 incubator) for 24 hours. As a control, 50 μl of 0.05% dimethylsulfoxide (DMSO)/DMEM medium was used for treatment.
as §1, §2

Another series has as its target T1, CYP1A2 (Homo sapiens, UniProt P05177).
T1 sequence (P05177 1-516): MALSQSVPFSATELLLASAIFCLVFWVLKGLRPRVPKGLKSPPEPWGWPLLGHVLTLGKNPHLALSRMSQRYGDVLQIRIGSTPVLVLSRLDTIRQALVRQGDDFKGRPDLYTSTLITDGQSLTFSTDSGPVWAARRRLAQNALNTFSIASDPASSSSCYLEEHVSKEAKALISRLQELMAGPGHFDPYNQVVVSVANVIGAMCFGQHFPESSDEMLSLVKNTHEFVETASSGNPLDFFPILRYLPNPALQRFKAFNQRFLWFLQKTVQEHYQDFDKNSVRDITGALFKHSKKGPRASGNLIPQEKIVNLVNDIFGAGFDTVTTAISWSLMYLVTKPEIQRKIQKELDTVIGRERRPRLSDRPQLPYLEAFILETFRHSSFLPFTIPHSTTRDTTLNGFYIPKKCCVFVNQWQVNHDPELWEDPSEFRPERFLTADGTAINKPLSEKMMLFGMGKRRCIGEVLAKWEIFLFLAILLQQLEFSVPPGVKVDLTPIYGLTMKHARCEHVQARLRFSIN
The series is described as follows: CYP isoenzyme activity. The class given is in vitro ADME. The conditions noted are these: 0.1 μM.

Another series concerns the target CYP2C19 (Homo sapiens, UniProt P33261). The series can be described thus: CYP isoenzyme activity. The class given is in vitro ADME. The conditions noted are these: 0.1 μM.
The next series concerns the target CYP2C9 (Homo sapiens, UniProt P11712). The series is described as follows: CYP isoenzyme activity. The class given is in vitro ADME. The conditions noted are these: 0.1 μM.

Structures are written as SMILES.

The results in this text go back to patent publication US12187717B2, “Compound and use thereof in treating autoimmune diseases” (PARENCHYMA BIOTECH INC., priority 2022, dated 2025).

CYP2C19, sequence (P33261 whole entry): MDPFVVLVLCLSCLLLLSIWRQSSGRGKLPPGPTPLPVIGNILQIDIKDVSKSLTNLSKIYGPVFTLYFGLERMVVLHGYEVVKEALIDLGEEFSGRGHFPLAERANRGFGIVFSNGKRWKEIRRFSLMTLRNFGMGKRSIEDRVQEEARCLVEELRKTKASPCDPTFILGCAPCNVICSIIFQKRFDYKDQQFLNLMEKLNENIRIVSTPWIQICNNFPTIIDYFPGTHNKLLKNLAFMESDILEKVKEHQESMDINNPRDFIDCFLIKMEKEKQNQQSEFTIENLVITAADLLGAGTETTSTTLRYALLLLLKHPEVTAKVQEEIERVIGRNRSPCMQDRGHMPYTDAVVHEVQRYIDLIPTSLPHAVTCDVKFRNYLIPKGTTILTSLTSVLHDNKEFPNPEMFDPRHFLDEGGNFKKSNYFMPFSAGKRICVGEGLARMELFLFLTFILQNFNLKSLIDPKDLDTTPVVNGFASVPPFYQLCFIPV
CYP2C9, sequence (P11712 whole entry): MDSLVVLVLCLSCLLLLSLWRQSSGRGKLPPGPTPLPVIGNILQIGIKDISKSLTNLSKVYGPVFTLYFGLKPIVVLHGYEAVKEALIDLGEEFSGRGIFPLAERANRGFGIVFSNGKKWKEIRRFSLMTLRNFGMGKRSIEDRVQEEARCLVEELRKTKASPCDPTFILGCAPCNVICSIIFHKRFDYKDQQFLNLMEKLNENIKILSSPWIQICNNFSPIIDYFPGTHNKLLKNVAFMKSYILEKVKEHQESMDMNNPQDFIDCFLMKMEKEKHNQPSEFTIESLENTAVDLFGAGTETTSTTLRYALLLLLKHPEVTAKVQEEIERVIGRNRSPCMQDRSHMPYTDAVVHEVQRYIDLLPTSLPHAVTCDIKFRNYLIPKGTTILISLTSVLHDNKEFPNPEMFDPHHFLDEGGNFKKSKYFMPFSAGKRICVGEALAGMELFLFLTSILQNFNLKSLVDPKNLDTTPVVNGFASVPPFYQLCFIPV

As for `CN1CCN(c2ccc3nc(NC(=O)Cc4c[nH]c5ccc(Cl)cc45)sc3c2)CC1` [Compound 9, 2-(5-chloro-1H-indol-3-yl)-N-(6-(4-methylpiperazine-1-yl)benzo[d]thiazol-2-yl)acetamide], in the series with IL-6, the “IL-6 production of A549 by IL-1β stimulation” value (from here on “IL-6 production of A549”) was “significantly reduced”. In addition, the “production of Foxp3-expressing regulatory T cells” value in series [1] was “markedly increased”.
On to `Cn1cc(CC(=O)Nc2nc3ccc(N4CCOCC4)cc3s2)c2cc(Cl)ccc21` [Compound 21, 2-(5-chloro-1-methyl-1H-indol-3-yl)-N-(6-morpholinobenzo[d]thiazol-2-yl)acetamide], for which the “IL-6 production of A549” value in the series on IL-6 is listed as “significantly reduced”. Moreover, the “CYP1A1 protein expression level” value in the series on CYP1A1 [2] is on record as “significantly higher”. Moreover, in the series on CYP1A1 [3], the “CYP1A1 mRNA expression level” value is listed as “significantly induced”.
For `O=C(Cc1c[nH]c2ccc(O)cc12)Nc1nc2ccc(N3CCOCC3)cc2s1` [Compound 32, 2-(5-hydroxy-1H-indol-3-yl)-N-(6-morpholinobenzo[d]thiazol-2-yl)acetamide], in that order: “significantly reduced”, “significantly higher” and “significantly induced”.
Turning to `COc1ccc2[nH]cc(CC(=O)Nc3nc4ccc(N5CCOCC5)cc4s3)c2c1` [Compound 39, 2-(5-methoxy-1H-indol-3-yl)-N-(6-morpholinobenzo[d]thiazol-2-yl)acetamide], in the series on IL-6, the “IL-6 production of A549” value was “significantly reduced”. In the series with CYP1A1 [2], the “CYP1A1 protein expression level” value is on record as “significantly higher”. Further, in the series with CYP1A1 [3], the “CYP1A1 mRNA expression level” value is on record as “significantly induced”.
For the molecule `CC(=O)N1CCN(c2ccc(OCC3COC(Cn4ccnc4)(c4ccc(Cl)cc4Cl)O3)cc2)CC1` (centres unmarked) [Ketoconazole], at CYP1A2, the CYP1A2 activity is reported as 95.4 % of Control Activity. Moreover, the CYP2C19 activity on CYP2C19 was 96.7 % of Control Activity. The CYP2C9 activity on CYP2C9 is given as 98.6 % of Control Activity.
